Data from PubChem BioAssay AID489041 (Sanford-Burnham Center for Chemical Genomics, 2010).
Activity calls are given as the source filed them. No rule for the calls is given here.

Tested on: HEK-293T NF-kB luciferase reporter counterscreen, luminescence
Experiment: NF-kB reporter inhibition in HEK-293T, dose response, counter-screen for T-cell antigen receptor NF-kB inhibitors, HEK-293T cells, luminescence (AID 489041)

Compound	IC50
O=C(Cc1ccc(-c2ccccc2)cc1)NCc1ccccc1	< 0.16 µM
Nc1nc2n[nH]nc2c(=O)[nH]1	> 80 µM (inactive)
Cc1c(C)c2cccnc2c2ncccc12	23.1 µM (inactive)
COc1ccccc1C1=NOC(COc2ccc3c(C)cc(=O)oc3c2)C1 (stereo not drawn)	4.89 µM
Cc1ncoc1C(=O)NC1CCCc2c1cnn2-c1ccc(C(C)(C)C)cc1 (stereo not drawn)	3.41 µM
O=C(Nc1ccncc1)c1ccc(Cl)c(S(=O)(=O)N2CCc3ccccc32)c1	1.49 µM
CCCCn1c2c(c(=N)c3c1CCC3)CCC2	8.5 µM
CCOC(=O)C(C)Oc1cccc2c(=O)n(CC(=O)NCc3ccc(F)cc3)ccc12 (stereo not drawn)	9.67 µM
CCOCCOC(=O)c1[nH]c2c(c1C)C(=O)CC(c1ccccc1)C2 (stereo not drawn)	3.05 µM
Cc1cc(C)nc(SCC(=O)Nc2ccnc3ccccc23)n1	9.08 µM
O=S1(=O)Nc2c(ccc3cccnc23)-c2ccccc21	0.28 µM
CCC(=O)NC(c1cccs1)c1ccc2cccnc2c1O (stereo not drawn)	1.61 µM
CCOC(=O)N/N=C/c1c(C)nn(-c2cccc(C(F)(F)F)c2)c1Cl	8.93 µM
C=CCSc1nc2ccccc2n1C(=O)/C=C/c1cc(OC)c(OC)c(OC)c1	21.2 µM (inactive)
COCCCNC(=O)C(=O)Nc1ccc2c(c1)N(S(=O)(=O)c1cccs1)CCC2	11.7 µM
COc1ccccc1N=C(C)C1=C(O)CC(c2ccccc2)CC1=O (stereo not drawn)	0.78 µM
C=C(C)COc1ccc(-c2[nH]ncc2-c2ccc(OC)c(OC)c2)c(O)c1	5.03 µM
CCCCN1/C(=C/c2ccc3ccccc3[n+]2CC)Sc2ccccc21	2.02 µM
Cc1ccc(Oc2ccc(OCC(=O)Nc3ccncc3)cc2)cc1	0.62 µM
Cc1ccc(O)c(NC(=O)CCC2CCCCC2)c1	> 80 µM (inactive)
Cc1cc(=O)oc2cc(OCC3CC(c4ccccc4Cl)=NO3)ccc12 (stereo not drawn)	5.52 µM
O=C(Nc1ccc(N2CCOCC2)cc1)c1ccc(Cl)c(S(=O)(=O)N2CCCCC2)c1	1.15 µM
CC(C)Cn1c(N)c(C(=O)CSc2ccc3c(c2)OCCO3)c(=O)n(C)c1=O	0.85 µM
O=C(NCc1cccs1)C1CCN(c2ccc(S(=O)(=O)N3CCOCC3)cc2Cl)CC1	8.56 µM
CCOc1ccccc1C1CC(=O)Nc2cc(C)c(C)cc21 (stereo not drawn)	7.75 µM
CCCCOc1ccc(Br)cc1/C(C)=N/NC1=NCCN1	6.14 µM

Compound	IC50
O=C(Nc1ccc(S(=O)(=O)N2CCCC2)cc1)c1ccc(CN2CCc3ccccc3C2)cc1	0.73 µM
COc1ccc(NC(=O)/C(Cl)=C(/Cl)S(=O)Cc2ccc(Cl)cc2)cn1 (stereo not drawn)	7.65 µM
CCOc1ccc(N(C)S(=O)(=O)c2ccc(-c3cc(C)no3)s2)cc1	7.17 µM
C/C=C/COC(=O)c1[nH]c2c(c1C)C(=O)CC(c1ccco1)C2 (stereo not drawn)	0.34 µM
Cc1cc(NC(=O)CSc2nc3ccccc3c(=O)n2C2CCCC2)no1	19.1 µM
COCCn1c(C)cc(C2=NNC(=Nc3ccccc3F)SC2)c1C	17.9 µM
Cc1ccc2oc(/N=C(\N)NC(=O)C(C)(C)C)nc2c1	< 0.16 µM
Cc1ccc(NS(=O)(=O)c2ccc(-c3cnc(C4CC4)o3)cc2)c(C)c1	1.47 µM
COc1ccc(NC(=O)Cn2nnc(-c3ccccc3NS(=O)(=O)c3ccc(OC)cc3)n2)cc1	13.6 µM
Cc1c(C(=O)OCC(C)C)[nH]c2c1C(=O)CC(c1cccs1)C2 (stereo not drawn)	0.41 µM
CCOC(=O)C(C)Oc1cccc2c(=O)n(CC(=O)NCc3ccccc3)ccc12 (stereo not drawn)	0.78 µM
O=Cc1cc2ccccc2nc1SCc1ccc(Cl)c(Cl)c1	5.54 µM
CC1=C(C(=O)OCc2ccc3c(c2)OCO3)C(c2ccc(Cl)cc2)NC(=O)N1 (stereo not drawn)	< 0.16 µM
COc1ccc(/C=N/NC(=O)COc2ccccc2-c2ccccc2)cc1	4.75 µM
Cc1cccc(N(C)S(=O)(=O)c2ccc(-c3cnc(C4CC4)o3)cc2)c1	0.57 µM
O=C(CSc1nnc(Cn2nnc3ccccc32)o1)N(Cc1ccc(F)cc1)c1ccccc1	0.94 µM
C=CC[C@@H](CC/C=C/C=C/CC/C=C\[C@@H]1CSC([C@@H]2C[C@@H]2C)=N1)OC	3.72 µM
CCOC(=O)c1ccccc1NS(=O)(=O)c1ccc(OCC)cc1	17.7 µM
Cc1cccc(OCCNC(=O)c2ccc(Cl)c(S(=O)(=O)NCc3cccnc3)c2)c1	10.1 µM
CC(C)c1ccc(/C=N/Nc2ccc(C(=O)O)cc2)cc1	4.37 µM
Cc1cccc(N2CCN(C(=O)c3c(-c4ccccc4Cl)noc3C)CC2)c1C	6.03 µM
CC(=O)NC(c1ccc2ccccc2c1)c1ccc2cccnc2c1O (stereo not drawn)	41.3 µM (inactive)
COc1ccccc1CNS(=O)(=O)c1ccc(-c2cc(C)no2)cc1	8.48 µM
CN(C)c1ccc(-c2nn3c(-c4ccccc4Cl)nnc3s2)cc1	19.8 µM
Cc1ccc2nc(-c3ccc4c(c3)OCCO4)cn2c1	2.34 µM
Cc1nc(NCc2ccco2)c2c(C)c(C)sc2n1	1.82 µM

Compound	IC50
Cc1noc(C)c1COc1ccc(CC(=O)NCc2ccccc2)cc1	20.5 µM (inactive)
COc1cc(-c2noc(C)c2-c2ccc3[nH]ccc3c2)cc(OC)c1OC	2.45 µM
COc1ccccc1N1CCN(C(=O)c2cc(=O)c3cc(C)cc(C)c3o2)CC1	76 µM (inactive)
CC(=O)Nc1ccc(S(=O)(=O)N2c3ccc(F)cc3CCC2C)cc1 (stereo not drawn)	14.6 µM
CCCCCCCCCn1c2c(c(=N)c3c1CCC3)CCCC2	0.68 µM
c1ccc2c(c1)CCN(c1ncnc3c1[nH]c1ccccc13)C2	1.43 µM
COc1cccc(N2CCN(C(=O)c3cn(Cc4ccccc4)nc3-c3cccnc3)CC2)c1	16.4 µM
Cc1cc(C)c2nc(C)cc(N/N=C/c3ccc(O)cc3)c2c1	12.9 µM
COc1cccc(CN(C)C(=O)c2cc(COc3ccc4ncccc4c3)on2)c1	1.9 µM
Cc1sc2ncnc(NC3CCN(Cc4ccccc4)CC3)c2c1C	2.41 µM
Cc1ccc(O)c(NC(=O)c2cc(-c3ccco3)on2)c1	> 80 µM (inactive)
Cc1ccc(S(=O)(=O)Cc2ccc(C(=O)N3CCN(c4cccc(C)c4C)CC3)o2)cc1	3.22 µM
CCCC(=O)NC(c1ccccc1Cl)c1ccc2cccnc2c1O (stereo not drawn)	> 80 µM (inactive)
Cc1cccc(N2CCN(C(=O)c3ccc(CS(=O)(=O)c4ccccc4C)o3)CC2C)c1 (stereo not drawn)	2.34 µM
Cc1ccc(-c2nc(-c3ccccn3)no2)cc1	3.83 µM
O=C(N/N=C/c1c(O)ccc2ccccc12)c1cccc(C(F)(F)F)c1	3.01 µM
CCc1ccc(/C=N/NC(=O)c2cc(-c3ccncc3)nc3ccccc23)s1	7.66 µM
CC(=O)O[C@H]1C(=O)[C@@]2(C)[C@H]([C@H](OC(=O)c3ccccc3)[C@]3(O)C[C@H](OC(=O)[C@H](O)[C@@H](NC(=O)c4ccccc4)c4ccccc4)C(C)=C1C3(C)C)[C@]1(OC(C)=O)CO[C@@H]1C[C@@H]2O	> 80 µM (inactive)
CCOc1ccc2c(c1)OC(c1ccc(OC)cc1)(C(F)(F)F)NC2=O (stereo not drawn)	9.2 µM
Cc1cc(-n2c(C)cc(C(=O)CSc3ncnc4ccccc34)c2C)no1	3 µM
Cc1ccc(C)c(CSc2nc3[nH]ncc3c(=O)[nH]2)c1	4.88 µM
O=C(Nc1cccc(C(F)(F)F)c1)c1sc(Cl)nc1C(F)(F)F	40.6 µM (inactive)
O=C1CC(c2cc(F)ccc2F)c2cc3c(cc2N1)CCC3 (stereo not drawn)	4.69 µM
CCOC(=O)c1ccc(Nc2nc(N)c3cc(OC)c(OC)cc3n2)cc1	> 80 µM (inactive)
O=C(NNc1ccnc2cc(Cl)ccc12)C1CCCCC1	0.33 µM
Cc1ccc(C[n+]2c(-c3ccc(C)cc3)cc(-c3ccc(C)cc3)cc2-c2ccc(C)cc2)cc1	1.19 µM
